These results are taken from patent publication US20200282010A1, “IMMUNOGENIC COMPOSITIONS AND USES THEREFOR” (Epiaxis Therapeutics Pty Ltd, priority 2017, published 2020).

The test deals with CD8^+ T-cells isolated from melanoma patient's bloods. The test is described as follows: Immunofluorescence of IFN-γ and TNF-α in patient CD8+ T-cells. The note with it: across all samples, particularly the stimulated samples; inhibitor 8 μm; FIG. 3. Format: cell-based, human. The method, then:
FIG. 3 is a photographic representation depicting a PKC-θ resistance signature in CD8^+ T-cells. A-B) CD8s were isolated from melanoma patient liquid biopsies (CR=complete response, SD=Stable Disease, PD=progression of disease) and were stimulated with PMA/CI and pre-clinically screened with either vehicle control or PKCθi nuclear peptide inhibitor. Samples were fixed and immunofluorescence microscopy was performed on these cells with primary antibodies for ZEB1, PKC-θ, and CD8. Representative images for each dataset are shown. Graph represents the TNFI for PKC-Theta and TNFI for ZEB1 measured using ImageJ to select the nucleus minus background (n=>20 cells/sample). […] Graph represents the TNFI for TNF-α and TNFI for IFN-γ measured using ImageJ to select the nucleus minus background (n=>20 cells/sample). […]
Metastatic melanoma biopsies were pre-enriched using the RosetteSep™ method to isolate CTCs by employing the RosetteSep™ Human CD45 Depletion Kit (15162, Stemcell Technologies) to remove CD45+ cells and red blood cells, using density gradient centrifugation with SepMate™-50 (IVD) density gradient tubes (85450, Stemcell Technologies) and Lymphoprep™ density gradient medium (07861, Stemcell Technologies). […] Digital images were analysed using ImageJ software (ImageJ, NIH, Bethesda, Md., USA) to determine TNFI, TCFI or TFI. […]

For the sequence RKEIDPPFRPKVK [PKCθi], the “expression of IFN-γ” value was “significant increase” and the “expression of TNF-α” value is “significant increase”.
